Among the data in PubChem BioAssay AID192 (DTP/NCI, 2004) are T/C values, retold here.

In the assay the test system is BDF1 mice, B16 melanoma ip, median survival T/C. Description: NCI In Vivo Anticancer Drug Screen. Data for tumor model B16 Melanoma (intraperitoneal) in B6D2F1 (BDF1) mice. The settings on record: endpoint: median survival time, higher = longer survival. In outline: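 Tumor-bearing mice received test compound or vehicle. Survival or tumor size was then measured in both groups. The treated-group figure was divided by the control-group figure.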

The mark [1] stands for this setting: dose: 4.0 mg/kg/injection, schedule: Q01DX009 (ip), vehicle: saline sonified.
Where [2] appears, read: dose: 8.0 mg/kg/injection, schedule: Q01DX009 (ip), vehicle: saline sonified.
The mark [3] stands for this setting: dose: 100.0 mg/kg/injection, schedule: Q01DX009 (ip), vehicle: Klucel (hydroxypropylcellulose) (HPC).
The mark [4] stands for this setting: dose: 50.0 mg/kg/injection, schedule: Q01DX009 (ip), vehicle: water.
[5] abbreviates: dose: 100.0 mg/kg/injection, schedule: Q01DX009 (ip), vehicle: water.
The mark [6] stands for this setting: dose: 100.0 mg/kg/injection, schedule: Q04DX003 (ip), vehicle: Klucel (hydroxypropylcellulose) (HPC).
Where [7] appears, read: dose: 200.0 mg/kg/injection, schedule: Q01DX009 (ip), vehicle: Klucel (hydroxypropylcellulose) (HPC).
Setting [8] is: dose: 400.0 mg/kg/injection, schedule: Q01DX009 (ip), vehicle: Klucel (hydroxypropylcellulose) (HPC).

Several values for one entry are separate records, joined by “and”; a condition that tells them apart may be missing. Equal entries are not always repeated. Inconclusive results and toxic doses are left out.

For `CCCCCCCCCCCC(c1ccccc1)[N+](C)(C)C` (stereo unspecified), the T/C reads like this: (dose: 1.0 mg/kg/injection, schedule: Q01DX009 (ip), vehicle: saline sonified) 105 % of control; (dose: 2.0 mg/kg/injection, schedule: Q01DX009 (ip), vehicle: saline sonified) 110 % of control; under setting [1], 105 % of control; under setting [2], 100 % of control.

`Cc1ccc(N=Nc2c(O)ccc3n[nH]nc23)cc1`: the T/C under setting [3] is 96 % of control.

As to `CN(C)CCSc1cc(O)c2c(c1O)C(=O)c1ccccc1C2=O`, the T/C under setting [4] is 94 % of control and the T/C under setting [5] was 102 % of control.

`Cc1cc(Cc2ccc(N=C=O)c(C)c2)ccc1N=C=O`: the T/C is 89 % of control (dose: 3.13 mg/kg/injection, schedule: Q01DX009 (ip), vehicle: saline with Tween-80); 92 % of control (dose: 6.25 mg/kg/injection, schedule: Q01DX009 (ip), vehicle: saline with Tween-80); 92 % of control and 102 % of control (dose: 12.5 mg/kg/injection, schedule: Q01DX009 (ip), vehicle: saline with Tween-80).

Regarding `Oc1ccccc1C=NCC[N-]CCN=Cc1ccccc1O.[Cu+]`, the T/C is, setting by setting: (dose: 0.39 mg/kg/injection, schedule: Q01DX009 (ip), vehicle: Klucel (hydroxypropylcellulose) (HPC)) 97 % of control; (dose: 0.78 mg/kg/injection, schedule: Q01DX009 (ip), vehicle: Klucel (hydroxypropylcellulose) (HPC)) 96 % of control; (dose: 1.56 mg/kg/injection, schedule: Q01DX009 (ip), vehicle: Klucel (hydroxypropylcellulose) (HPC)) 90 % of control.

Turning to `COc1cc2ccc3c[n+](C)ccc3c2cc1OC`, the T/C (dose: 12.5 mg/kg/injection, schedule: Q01DX009 (ip), vehicle: water) is 101 % of control; the T/C (dose: 25.0 mg/kg/injection, schedule: Q01DX009 (ip), vehicle: water) is 106 % of control; the T/C under setting [4] is 95 % of control; the T/C under setting [5] is 101 % of control.

For `CCC(CC)c1ccccn1`, the T/C was 101 % of control (dose: 100.0 mg/kg/injection, schedule: Q01DX009 (ip), vehicle: carboxymethylcellulose (CMC)) and 95 % of control (dose: 200.0 mg/kg/injection, schedule: Q01DX009 (ip), vehicle: carboxymethylcellulose (CMC)).

As to `c1ccc(C(=C2CCC2)c2c3ccccc3cc3ccccc23)cc1`, the T/C by setting is: (dose: 25.0 mg/kg/injection, schedule: Q04DX003 (ip), vehicle: Klucel (hydroxypropylcellulose) (HPC)) 102 % of control; (dose: 50.0 mg/kg/injection, schedule: Q04DX003 (ip), vehicle: Klucel (hydroxypropylcellulose) (HPC)) 91 % of control; under setting [6], 105 % of control.

Take `CCCCCCCNC(=O)Nc1cccc(Cl)c1C`: the T/C (dose: 50.0 mg/kg/injection, schedule: Q01DX009 (ip), vehicle: Klucel (hydroxypropylcellulose) (HPC)) is 99 % of control; the T/C under setting [3] is 90 % of control; the T/C under setting [7] is 95 % of control.

Turning to `CC(=O)OC1C(=O)C(O)C(C)OC1O[C@@H]1C[C@@]2(C)[C@@H]3CC=C4[C@@H](C[C@H](O)C(=O)C4(C)C)[C@]3(C)C(=O)C[C@]2(C)[C@H]1[C@@](C)(O)C(=O)/C=C/C(C)(C)O` (stereo partly specified), the T/C was 92 % of control (dose: 1.0 mg/kg/injection, schedule: Q01DX009 (ip), vehicle: saline) and 92 % of control (dose: 2.0 mg/kg/injection, schedule: Q01DX009 (ip), vehicle: saline).

With `CCN(CC)C(N)=S`, the T/C under setting [6] was 102 % of control; the T/C (dose: 200.0 mg/kg/injection, schedule: Q04DX003 (ip), vehicle: Klucel (hydroxypropylcellulose) (HPC)) was 95 % of control; the T/C (dose: 400.0 mg/kg/injection, schedule: Q04DX003 (ip), vehicle: Klucel (hydroxypropylcellulose) (HPC)) was 97 % of control.

On to `Nc1nc(=S)c2ncn(C3OC(COC(=O)c4ccc(Cl)cc4)C(OC(=O)c4ccc(Cl)cc4)C3OC(=O)c3ccc(Cl)cc3)c2[nH]1` (stereo unspecified), for which the T/C is 116 % of control (dose: 18.75 mg/kg/injection, schedule: Q01DX009 (ip), vehicle: Klucel (hydroxypropylcellulose) (HPC)); 120 % of control (dose: 37.5 mg/kg/injection, schedule: Q01DX009 (ip), vehicle: Klucel (hydroxypropylcellulose) (HPC)); 116 % of control (dose: 75.0 mg/kg/injection, schedule: Q01DX009 (ip), vehicle: Klucel (hydroxypropylcellulose) (HPC)); 109 % of control (dose: 150.0 mg/kg/injection, schedule: Q01DX009 (ip), vehicle: Klucel (hydroxypropylcellulose) (HPC)).

As for `CC(C)NC1C2CCC(CC2)C1(O)c1ccc(Cl)c(Cl)c1` (stereo unspecified), the T/C (dose: 0.78 mg/kg/injection, schedule: Q01DX009 (ip), vehicle: saline) was 108 % of control; the T/C (dose: 1.56 mg/kg/injection, schedule: Q01DX009 (ip), vehicle: saline) is 107 % of control; the T/C (dose: 3.12 mg/kg/injection, schedule: Q01DX009 (ip), vehicle: saline) was 107 % of control; the T/C (dose: 6.25 mg/kg/injection, schedule: Q01DX009 (ip), vehicle: saline) was 104 % of control; the T/C (dose: 12.5 mg/kg/injection, schedule: Q01DX009 (ip), vehicle: saline) is 102 % of control.

In the case of `COc1cc2c(cc1OC)/C(=C\C(=O)N1CCCC1=O)CCC2`, the T/C under setting [3] is 97 % of control, the T/C under setting [7] was 100 % of control and the T/C under setting [8] is 117 % of control.

As for `CCOC(=O)C(=CN1CCCCCC1)C(=O)OCC`, the T/C is, setting by setting: (dose: 100.0 mg/kg/injection, schedule: Q01DX009 (ip), vehicle: saline with Tween-80) 102 % of control; (dose: 100.0 mg/kg/injection, schedule: Q04DX003 (ip), vehicle: saline with Tween-80) 97 % of control; (dose: 200.0 mg/kg/injection, schedule: Q01DX009 (ip), vehicle: saline with Tween-80) 101 % of control; (dose: 200.0 mg/kg/injection, schedule: Q04DX003 (ip), vehicle: saline with Tween-80) 95 % of control; (dose: 400.0 mg/kg/injection, schedule: Q04DX003 (ip), vehicle: saline with Tween-80) 92 % of control.

Regarding `NCC(=O)Nc1ccc(O)cc1`, the T/C was 94 % of control (dose: 150.0 mg/kg/injection, schedule: Q01DX009 (ip), vehicle: saline) and 105 % of control (dose: 300.0 mg/kg/injection, schedule: Q01DX009 (ip), vehicle: saline).

Regarding `O=c1nc(NC(=S)Nc2ccn(C3OC(CO)C(O)C3O)c(=O)n2)ccn1C1OC(CO)C(O)C1O` (stereo unspecified), the T/C runs as follows: under setting [1], 97 % of control; under setting [2], 102 % of control; (dose: 8.0 mg/kg/injection, schedule: Q01DX009 (ip), vehicle: saline with Tween-80) 95 % of control; (dose: 16.0 mg/kg/injection, schedule: Q01DX009 (ip), vehicle: saline sonified) 100 % of control; (dose: 16.0 mg/kg/injection, schedule: Q01DX009 (ip), vehicle: saline with Tween-80) 108 % of control; (dose: 32.0 mg/kg/injection, schedule: Q01DX009 (ip), vehicle: saline sonified) 102 % of control. For the same molecule, the T/C by setting is: (dose: 32.0 mg/kg/injection, schedule: Q01DX009 (ip), vehicle: saline with Tween-80) 95 % of control; (dose: 64.0 mg/kg/injection, schedule: Q01DX009 (ip), vehicle: saline with Tween-80) 104 % of control.

With `COc1cccc(NC(=O)Nc2ccccc2OC)c1`, the T/C is, setting by setting: under setting [3], 86 % of control; under setting [7], 90 % of control; under setting [8], 93 % of control.

Regarding `CC12CCC(O)CC1CCC1C2CCC2(C)C(c3ccc(=O)oc3)CCC12O` (stereo unspecified), the T/C by setting is: (dose: 0.31 mg/kg/injection, schedule: Q01DX009 (ip), vehicle: saline with Tween-80) 98 % of control; (dose: 0.62 mg/kg/injection, schedule: Q01DX009 (ip), vehicle: saline with Tween-80) 94 % of control; (dose: 1.25 mg/kg/injection, schedule: Q01DX009 (ip), vehicle: saline with Tween-80) 99 % of control; (dose: 2.5 mg/kg/injection, schedule: Q01DX009 (ip), vehicle: saline with Tween-80) 99 % of control.

Take `COc1cccc2c1C(=N)c1c(O)c3c(c(O)c1C2=O)C[C@@](O)(C(=O)CO)C[C@@H]3OC1CC(N)C(O)C(C)O1` (stereo partly specified): the T/C (dose: 25.0 mg/kg/injection, schedule: Q01DX001 (ip), vehicle: water) is 230 % of control; the T/C (dose: 50.0 mg/kg/injection, schedule: Q01DX001 (ip), vehicle: water) was 292 % of control; the T/C (dose: 100.0 mg/kg/injection, schedule: Q01DX001 (ip), vehicle: water) was 307 % of control.

Consider `COc1cc(C=O)cc(O)c1O`, for which the T/C is, setting by setting: (dose: 100.0 mg/kg/injection, schedule: Q01DX009 (ip), vehicle: saline) 95 % of control; (dose: 200.0 mg/kg/injection, schedule: Q01DX009 (ip), vehicle: saline) 111 % of control.

As to `S=C(Nc1ccccc1)Nc1ccccc1S`, the T/C is 95 % of control and 107 % of control under setting [3]; 98 % of control and 111 % of control under setting [7].
